The values below come from PMC6838683, “Discovery of Human Signaling Systems: Pairing Peptides to G Protein-Coupled Receptors” (Cell, 2019).

Positions of bridges follow the written chain, without caps; N, C: chain ends. Residues, ends and D or L forms follow the SMILES beside them.

As a reminder, the Emax is the greatest response seen or fitted, relative to the assay's reference.

Experiment [1] concerns the target T1, HA-OGR1 (GPR68) (Homo sapiens, UniProt Q15743).
T1 construct: HA; expressed in transfected cells
Briefly: Ca2+ mobilization assay (Fluo-4). It is filed as cell-based. The following applies: GPR68, calcium mobilization, mean, SEM and n (3-5) in separate columns. The procedure: Peptide-dependent Ca^2+ mobilization responses were measured in HEK293 stable cell lines (HA-OGR1 (GPR68) and vector pcDNA) ([Saxena et al., 2012]) that were seeded in 96-well plates (1 × 10^5 cells/well) and cultured at 37°C with 5% CO2 to near confluence in DMEM with 10% FBS (Corning). Six hours prior to assay, medium was changed to pH 8.0 or pH 7.4 HAM’s F12 Nutrient Mixture (GIBCO) without FBS and transferred to a 37°C incubator without CO2. One hour prior to stimulation, cells were incubated in pH 8.0 or pH 7.4 HBSS with Ca^2+ and Mg^2+ (GIBCO), supplemented with 15 mM HEPES, 2 μM Fluo-4 AM (Invitrogen) and 1.5 mM probenecid ([…] to prevent Fluo-4 efflux) as described previously ([Pera et al., 2018]). Indicated peptides were pipetted using an automated system and emission signal was recorded at 525 nm after excitation at 485 nm using Flex Station III (Molecular Devices). Ca^2+ mobilization responses were determined by subtracting basal fluorescence from the net peak of agonist-induced fluorescence. Ionomycin (1 μM) was used to calculate the maximum Ca^2+ signal to normalize peptide-mediated responses.
On the technique in general: A change in cytosolic calcium serves as a functional read-out for many receptors and channels.

Experiment [2] has as its target T2, GPR68 (Homo sapiens, UniProt Q15743). Briefly: Dynamic mass redistribution (DMR), concentration-response. It is filed as cell-based. Also noted: hIL-2Ra signal peptide (N); expressed in transfected cells. The following applies: GPR68; dynamic mass redistribution, concentration-response; mean, SEM and n (3-4). In short, it runs like this: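 Doxycycline-induced (0.1 μg/ml) SNAP-tagged receptors in TREx 293 cells, equilibrated 90 min at 22°C in HEPES-buffered HBSS, pH 7.4, with 0.1% DMSO. Peptide-evoked optical wavelength shift recorded for 60 min at 22°C, buffer/solvent corrected and quantified as area under the curve. Mean ± SEM of at least 3 independent experiments.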
Target sequence in this assay (Q15743 2-365 limits assumed): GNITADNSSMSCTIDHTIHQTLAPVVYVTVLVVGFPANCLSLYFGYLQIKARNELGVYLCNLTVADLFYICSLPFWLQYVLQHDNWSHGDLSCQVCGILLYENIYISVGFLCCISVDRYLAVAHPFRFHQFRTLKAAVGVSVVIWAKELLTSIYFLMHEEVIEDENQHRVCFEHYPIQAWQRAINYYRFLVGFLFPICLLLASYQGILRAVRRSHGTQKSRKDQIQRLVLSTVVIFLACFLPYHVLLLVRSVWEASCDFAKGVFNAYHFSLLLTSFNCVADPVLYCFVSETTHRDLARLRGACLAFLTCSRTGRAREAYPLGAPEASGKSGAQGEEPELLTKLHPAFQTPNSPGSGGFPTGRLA

The target of experiment [3] is T2, GPR68. Briefly: Real-time receptor internalization (TR-FRET), concentration-response. The following applies: GPR68; real-time internalization; mean, SEM and n (3). The experiment is classed as cell-based. Details: hIL-2Ra signal peptide (N); expressed in transfected cells. The procedure: 48 hr prior to parallel assaying, SNAP-tagged oGPCR cells were plated (10,000 cells/well) in fibronectin-coated 384-well Epic biosensor microplates (Corning) and poly-D-lysine coated white 384-well plates (for internalization assays). SNAP- GLP-1 receptor was plated alongside orphan receptor cells as an internal assay control for internalization assays. Receptor-expression was induced with 0.1 μg/ml doxycycline.
A TR-FRET real-time internalization assay was used to examine peptide-dependent changes in orphan receptor localization as described previously ([Foster and Bräuner-Osborne, 2018]). Surface-expressed SNAP-tagged receptors were labeled with a cell-impermeable luminescent terbium cryptate (100 nM SNAP Lumi4-Tb; Cisbio, France) for 1 hr at 37°C. Cells were washed to remove excess terbium and incubated with fluorescein-O-acetic acid (100 μM; Sigma Aldrich) for 5 min at 37°C. Peptides were added as for DMR assays, and internalization responses were recorded for 60 min at 37°C using an EnVision 2104 Multimode plate reader (PerkinElmer). 100 nM GLP-1 was used as a positive control for SNAP-GLP1R internalization. Real-time internalization responses were calculated based on TR-FRET (excitation 340 nm; emission 520 nm and 615 nm), and were expressed as the ratio between donor (terbium) and acceptor (fluorescein) emission. For peptide screening analysis (both DMR and internalization assays), we calculated the area under the curve from the real-time traces. As the magnitude of the responses was variable between orphan receptor targets, particularly for the SNAP-tag based internalization assay where the signal is dependent on receptor surface expression, the AUC values were normalized to their respective plate averages and expressed as fold change. Validation experiments for receptor internalization were performed as above. Internalization data was processed in MS-Excel and area under the curve was used to generate concentration-response curves using GraphPad Prism 7.0. Data represent mean ± standard error of the mean (SEM) from at least 3 biologically independent experiments.
(TR-FRET usually uses a lanthanide donor and a delayed reading to cut background.)
Target sequence in this assay (Q15743 2-365 limits assumed): as above

Experiment [4] deals with T2, GPR68. Briefly: GloSensor cAMP assay (Gs), allosteric operational model fitting. It is filed as cell-based. Also noted: expressed in transfected cells; host or cells: HEK293T, transient (PEI), co-transfected with GloSensor cAMP plasmid. The note with it: GPR68; GloSensor cAMP; mean, SEM and n (4). The procedure:
GPR68-mediated cAMP signaling was measured using GloSensor cAMP assays as published previously ([Huang et al., 2015], [Yu et al., 2019]) with modifications as indicated below. Calcium- and magnesium-free HBSS was supplemented with different organic buffer reagents for different pH solutions, 20 mM 2-(N-morpholino)ethanesulfonic acid (MES, Alfa Aesar) for pH 6.00 – 6.70, 20 mM 4-(2-hydroxyethyl)-1-piperazineethanesulfonic acid (HEPES, Fisher) for pH 6.80 – 8.20, and 20 mM (tris(hydroxymethyl)methylamino)propanesulfonic acid (TAPS) for pH 8.30 – 8.60. The phosphodiesterase (PDE) inhibitor Ro 20-1724 (10 μM final, Cayman Chemical) was included in pH buffers to eliminate potential effect of PDE […]. HEK293T cells were transfected with a modified polyethylenimine (PEI, Polysciences) transfection method ([Longo et al., 2013]). For a 15-cm dish of HEK293T cells with 25 mL growth medium, 8 μg receptor DNA and 8 μg GloSensor DNA (Promega) were mixed in 1 mL of Opti-MEM medium followed by addition of 80 μL PEI reagents. The mixture was added to cells after 20 min incubation at room temperature. Overnight transfected cells were plated in poly-L-lysine (Sigma) coated 384-well white clear bottom plates (Greiner Bio-One, #781098) using DMEM (Corning) + 1% dialyzed FBS (Omega Scientific) for at least 6 h (up to 24 h). Cells were removed of medium before receiving 20 μL/well of 3.5 mM luciferin (Goldbio) prepared in assay buffer (HBSS, 20 mM TAPS, pH 8.40, 10 μM Ro 20-1724) for 1 h at 37°C. Luciferin loading solutions were removed and premixed drug solutions at desired pH conditions were added to cells (25 μL/well). Luminescence was measured 25-30 min after drug application. Results were normalized (basal and maximum responses in the absence of modulator were set to be 0 and 100%) and pooled for analysis using GraphPad Prism.
All of the other parameters, including allosteric affinity cooperativity (α), allosteric modulator binding affinity KB, orthosteric agonist (protons) efficacy τA, system maximal response, and slope factor n were all globally shared for all datasets for each modulator. […] We therefore used an allosteric index, log(αβ/KB) ([Kenakin, 2017a]), which contains both allosteric binding affinity and cooperativity, to quantify the overall allosteric activity.
Target sequence in this assay (Q15743 whole entry): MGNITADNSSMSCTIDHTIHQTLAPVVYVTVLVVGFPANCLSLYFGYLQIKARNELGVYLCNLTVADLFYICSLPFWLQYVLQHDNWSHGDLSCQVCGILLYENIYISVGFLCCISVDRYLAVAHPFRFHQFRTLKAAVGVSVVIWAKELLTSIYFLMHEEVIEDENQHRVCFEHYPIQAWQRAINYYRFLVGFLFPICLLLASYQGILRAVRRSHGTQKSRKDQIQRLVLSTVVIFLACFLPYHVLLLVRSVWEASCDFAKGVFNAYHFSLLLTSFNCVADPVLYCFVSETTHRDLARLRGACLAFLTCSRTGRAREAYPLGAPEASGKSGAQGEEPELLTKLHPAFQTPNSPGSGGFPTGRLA

In experiment [5] the target is T3, MAS1 (Homo sapiens, UniProt P04201).
T3 construct: host or cells: HTLA cells (HEK293-derived)
T3 sequence (P04201 1-325): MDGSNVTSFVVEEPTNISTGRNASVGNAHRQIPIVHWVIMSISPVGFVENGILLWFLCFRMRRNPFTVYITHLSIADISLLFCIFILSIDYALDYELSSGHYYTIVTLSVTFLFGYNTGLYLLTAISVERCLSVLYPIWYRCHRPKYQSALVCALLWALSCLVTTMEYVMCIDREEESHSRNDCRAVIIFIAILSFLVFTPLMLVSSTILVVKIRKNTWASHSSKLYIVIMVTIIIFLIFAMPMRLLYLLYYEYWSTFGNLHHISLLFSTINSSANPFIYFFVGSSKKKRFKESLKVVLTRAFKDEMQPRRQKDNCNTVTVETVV
Briefly: β-arrestin recruitment (Tango), indicative pairing. It is filed as cell-based. The note with it: mean, n = 3. The procedure:
(§1) The peptide library was additionally screened against 120 GPCR targets in parallel, including all available orphan receptors and 27 known class A peptide receptors using the Tango assay platform ([Kroeze et al., 2015]). Briefly, HTLA cells (a HEK293 cell line stably expressing a tTA-dependent luciferase reporter and a β-arrestin2-TEV fusion gene) were plated 10,000 cells/well in poly-L-lysine–coated clear-bottom white 384-well plates in DMEM supplemented with 10% FBS, 100 U/ml penicillin and 100 μg/ml streptomycin, 2 μg/ml puromycin and 100 μg/ml hygromycin B. 24 hr later, cells were transfected with Tango GPCR constructs using the calcium phosphate method ([Jordan et al., 1996]). The next day, culture medium was changed to DMEM + 1% dFBS and 10 μM peptides were added for overnight stimulation. Bright-Glo solution (Promega) was incubated for 15–20 min at room temperature, and luminescence was counted using a Trilux luminescence counter (Wallac).
For subsequent peptide validation experiments using Tango assays, HTLA cells were transiently transfected in 10 cm dishes with the receptor of interest using polyethylenimine (PEI) ([Longo et al., 2013]). After 24 hr, 25,000 cells/well were plated in clear bottom, white-walled 384-well plates. Assays were performed as described above, with luminescence measured using an EnSpire 2300 Multimode plate reader (PerkinElmer). Luminescence counts were exported into Excel and were analyzed using GraphPad Prism 7.
On the technique in general: Arrestin recruitment assays detect the binding of arrestin to an activated receptor.

For experiment [6], the system named is 120 GPCR targets, including all available orphan receptors and 27 known class A peptide receptors. Briefly: Peptide library screen, β-arrestin recruitment (Tango, fold change, 10 μM). The following applies: for Active at: (activity in b-arrestin recruitment assays): Tango, receptor(s) at which the known library peptide was active, among its known GPCR target(s), validated pairings; for Confirmation of known target in Tango: repeat hitters of the peptide library screen, the value names the known receptor(s) confirmed in the β-arrestin recruitment (Tango) screen. The experiment is classed as cell-based, human. The procedure:
as §1

Experiment [7] addresses T4, MRGPRX2 (Homo sapiens, UniProt Q96LB1).
T4 construct: host or cells: HTLA cells (HEK293-derived)
T4 sequence (Q96LB1 1-330): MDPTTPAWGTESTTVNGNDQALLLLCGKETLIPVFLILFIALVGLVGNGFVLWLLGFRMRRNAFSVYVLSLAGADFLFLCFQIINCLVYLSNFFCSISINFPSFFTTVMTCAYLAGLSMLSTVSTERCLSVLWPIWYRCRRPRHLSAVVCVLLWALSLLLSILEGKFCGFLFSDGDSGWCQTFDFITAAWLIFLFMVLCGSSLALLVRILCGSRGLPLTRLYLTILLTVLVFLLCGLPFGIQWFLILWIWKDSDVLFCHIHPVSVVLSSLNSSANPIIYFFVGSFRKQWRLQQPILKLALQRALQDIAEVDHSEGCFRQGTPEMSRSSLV
Briefly: β-arrestin recruitment (Tango), known peptide receptors. It is filed as cell-based. The following applies: mean, n = 3.

T1 sequence (Q15743 whole entry): as the sequence (Q15743 whole entry) above

With `CC[C@H](C)[C@H](NC(=O)[C@H](CCCNC(=N)N)NC(=O)[C@H](C)NC(=O)CNC(=O)[C@H](CCCCN)NC(=O)[C@H](CCCNC(=N)N)NC(=O)[C@@H](NC(=O)[C@H](C)NC(=O)[C@@H]1CSSC[C@H](NC(=O)[C@H](CCSC)NC(=O)[C@@H]2CCCN2C(=O)[C@@H](NC(=O)[C@H](CCC(N)=O)NC(=O)CNC(=O)[C@@H](N)Cc2ccc(O)cc2)C(C)C)C(=O)N[C@@H](CC(=O)O)C(=O)N[C@@H](C)C(=O)NCC(=O)N[C@@H](CCC(=O)O)C(=O)N[C@@H](CCC(N)=O)C(=O)N1)C(C)C)C(N)=O` [139 original] (H-YGQVPMCDAGEQCAVRKGARI-NH2; disulfide 7-13; N-terminus assumed), the Emax in experiment [1] (read-out: Calcium mobilization assays Emax (% ionomycin)) was 73.1%. The EC50 in experiment [1] (read-out: Calcium mobilization assays pEC50 (converted)) is 7.08 µM. In experiment [2], the “DMR assays Emax (peak or AUC)” value stood at 944453. The “Internalization assays Emax (AUC)” value in experiment [3] is reported as 9.4.
Regarding `CC[C@H](C)[C@H](NC(=O)[C@H](CCCNC(=N)N)NC(=O)[C@H](C)NC(=O)CNC(=O)[C@H](CCCCN)NC(=O)[C@H](CCCNC(=N)N)NC(=O)[C@@H](NC(=O)[C@H](C)NC(=O)[C@@H]1CSSC[C@H](NC(=O)[C@H](CCSC)NC(=O)[C@@H]2CCCN2C(=O)[C@@H](NC(=O)[C@H](CCC(N)=O)NC(=O)CNC(=O)[C@@H](N)Cc2ccc(O)cc2)C(C)C)C(=O)N[C@@H](CC(=O)O)C(=O)N[C@@H](C)C(=O)NCC(=O)N[C@@H](CCC(=O)O)C(=O)N[C@@H](CCC(N)=O)C(=O)N1)C(C)C)C(N)=O` [139 resynthesized] (H-YGQVPMCDAGEQCAVRKGARI-NH2; disulfide 7-13; N-terminus and C-terminus assumed), in experiment [2], the “DMR assays Emax (peak or AUC)” value turned out to be 749669. In experiment [3], the “Internalization assays Emax (AUC)” value is 13.6. The “GloSensor cAMP assays Emax (fold change)” value in experiment [4] came out at 25.2 fold change.
Take “AGCKNFFWKTFTSC (disulfide) [Peptide 103]”: the “pEC50, Tango (fold over basal)” value in experiment [5] is on record as 4.33. Further, in experiment [6], the “Active at: (activity in b-arrestin recruitment assays)” value is reported as “SST2” and the “Confirmation of known target in Tango” value was “SST2”. In experiment [7], the “Emax, Tango (fold over basal)” value is 6.6 fold over basal and the “pEC50, Tango (fold over basal)” value is 4.98.
For “DRMPCRNFFWKTFSSCK (disulfide) [Peptide 121]”, the “pEC50, Tango (fold over basal)” value in experiment [5] is 4.96. Also, in experiment [6], the “Confirmation of known target in Tango” value was “SST2”.
As for “KPLRKDENGTSVAEYPMSASQSNKGVDVNNAVV [Peptide 193]”, in experiment [5], the “Emax, Tango (fold over basal)” value is 1.3 fold over basal and the “pEC50, Tango (fold over basal)” value came out at 9.32.
Regarding YGGFLRRIRPKLKWDNQ [Peptide 119], the “pEC50, Tango (fold over basal)” value in experiment [5] was 5.04. In experiment [6], the “Active at: (activity in b-arrestin recruitment assays)” value is given as “kappa” and the “Confirmation of known target in Tango” value is “kappa, mu”.
